Data taken from patent US20170008921A1, “C-3 NOVEL TRITERPENONE WITH C-28 REVERSE AMIDE DERIVATIVES AS HIV INHIBITORS” (HETERO RESEARCH FOUNDATION, priority 2015, published 2017).
Where a name gives a salt, the structure may show the parent alone. Read-outs that look alike come from different tables or passages of the source.

Experiment: Cyto-toxicity (MTT assay)
Assay type: cell-based
Protocol: On day 1 calculate the number of cells required for the assay and seed 3×10^4 cells in 200 μl per well. Weigh the compound and dissolve it in DMSO to get 10 mM stock which is further diluted to 3 mM and 1 mM. […] Add DMSO to controls in a way to obtain final concentration of solvent that is not greater than 1%. Incubate for 4 days in 5% CO2 incubator at 37° C. On day 4, 100 μl of medium was removed from each well without disturbing the cells. Add 10 μl of MTT reagent and incubate for 4 hours at 5% CO2 incubator at 37° C. for formation of crystals. Add 200 μl of 0.1N acidic isopropanol to dissolve the crystals and read the plate at 590 nm. The values are mentioned in below Table-3 and Table-3A.

[1] = 0.01 μM, MTT, 4 days (Table 3), read-out: Cytotoxicity % viability
[2] = 0.1 μM, MTT, 4 days (Table 3), read-out: Cytotoxicity % viability
[3] = 1 μM, MTT, 4 days (Table 3), read-out: Cytotoxicity % viability

| SMILES | viability at 4 days, 0.01 µM [%] | viability at 4 days, 0.1 µM [%] | viability at 4 days, 1 µM [%] | viability at 4 days, 0.01 µM [1] [%] | viability at 4 days, 0.1 µM [2] [%] | viability at 4 days, 1 µM [3] [%] |
| --- | --- | --- | --- | --- | --- | --- |
| CC(C)C1=C2[C@H]3CC[C@@H]4[C@@]5(C)CC[C@H](OC(=O)[C@H]6C[C@@H](C(=O)O)C6(C)C)C(C)(C)[C@@H]5CC[C@@]4(C)[C@]3(C)CC[C@@]2(NC(=O)C(C)(C)NC(=O)c2ccc(Cl)cc2)CC1=O [Example 1, (1R,3S)-3-((((3aR,5aR,5bR,7aR,9S,11aR,11bR,13aS)-3a-(2-(4-chlorobenzamido)-2-methylpropanamido)-1-isopropyl-5a,5b,8,8,11a-pentamethyl-2-oxo-3,3a,4,5,5a,5b,6,7,7a,8,9,10,11,11a,11b,12,13,13a-octadecahydro-2H-cyclopenta[a]chrysen-9-yl)oxy)carbonyl)-2,2-dimethylcyclobutane-1-carboxylic acid] | 57 | 10 | 4 |  |  |  |
| CC(C)C1=C2[C@H]3CC[C@@H]4[C@@]5(C)CC[C@H](OC(=O)[C@H]6C[C@@H](C(=O)O)C6(C)C)C(C)(C)[C@@H]5CC[C@@]4(C)[C@]3(C)CC[C@@]2(NC(=O)C(C)(C)NC(=O)[C@@H]2CCCN2C(=O)OC(C)(C)C)CC1=O [Example 8, (1R,3S)-3-((((3aR,5aR,5bR,7aR,9S,11aR,11bR,13aS)-3a-(2-((S)-1-(tert-butoxycarbonyl)pyrrolidine-2-carboxamido)-2-methylpropanamido)-1-isopropyl-5a, 5b,8,8,11a-pentamethyl-2-oxo-3,3a,4,5,5a,5b,6,7,7a,8,9,10,11,11a,11b,12,13,13a-octadeca hydro-2H-cyclopenta[a]chrysen-9-yl)oxy)carbonyl)-2,2-dimethylcyclobutane-1-carboxylic acid] | 28 | 5 | 3 |  |  |  |
| CCN1CCN(CC(=O)NC(C)(C)C(=O)N[C@@]23CC[C@]4(C)[C@H](CC[C@@H]5[C@@]6(C)CC[C@H](OC(=O)[C@H]7C[C@@H](C(=O)O)C7(C)C)C(C)(C)[C@@H]6CC[C@]54C)C2=C(C(C)C)C(=O)C3)CC1 [Example 9, (1R,3S)-3-((((3aR,5aR,5bR,7aR,9S,11aR,11bR,13aS)-3a-(2-(2-(4-ethylpiperazin-1-yl)acetamido)-2-methylpropanamido)-1-isopropyl-5a,5b,8,8,11a-pentamethyl-2-oxo-3,3a,4,5,5a,5b,6,7,7a,8,9,10,11,11a,11b,12,13,13a-octadecahydro-2H-cyclopenta[a]chrysen-9-yl)oxy)carbonyl)-2,2-dimethylcyclobutane-1-carboxylic acid] | 100 | 53 | 14 |  |  |  |
| CC(C)C1=C2[C@H]3CC[C@@H]4[C@@]5(C)CC[C@H](OC(=O)[C@H]6C[C@@H](C(=O)O)C6(C)C)C(C)(C)[C@@H]5CC[C@@]4(C)[C@]3(C)CC[C@@]2(NC(=O)C(C)(C)NC(=O)C(C)(C)N)CC1=O [Example 11, (1R,3S)-3-((((3aR,5aR,5bR,7aR,9S,11aR,11bR,13aS)-3a-(2-(2-amino-2-methylpropanamido)-2-methylpropanamido)-1-isopropyl-5a,5b,8,8,11a-pentamethyl-2-oxo-3,3a,4,5,5a,5b,6,7,7a,8,9,10,11,11a,11b,12,13,13a-octadecahydro-2H-cyclopenta[a]chrysen-9-yl)oxy)carbonyl)-2,2-dimethylcyclobutane-1-carboxylic acid hydrochloride] | 41 | 3 | 1 |  |  |  |
| CC(C)C1=C2[C@H]3CC[C@@H]4[C@@]5(C)CC[C@H](OC(=O)[C@H]6C[C@@H](C(=O)O)C6(C)C)C(C)(C)[C@@H]5CC[C@@]4(C)[C@]3(C)CC[C@@]2(NC(=O)C(C)(C)NC(=O)c2nccn2C)CC1=O [Example 16, (1R,3S)-3-((((3aR,5aR,5bR,7aR,9S,11aR,11bR,13aS)-1-isopropyl-5a,5b,8,8,11a-pentamethyl-3a-(2-methyl-2-(1-methyl-1H-imidazole-2-carboxamido)propanamido)-2-oxo-3,3a,4,5,5a,5b,6,7,7a,8,9,10,11,11a,11b,12,13,13a-octadecahydro-2H-cyclopenta[a]chrysen-9-yl)oxy)carbonyl)-2,2-dimethylcyclobutane-1-carboxylic acid] | 37 | 11 | 2 |  |  |  |
| CC(C)C1=C2[C@H]3CC[C@@H]4[C@@]5(C)CC[C@H](OC(=O)[C@H]6C[C@@H](C(=O)O)C6(C)C)C(C)(C)[C@@H]5CC[C@@]4(C)[C@]3(C)CC[C@@]2(NC(=O)C(C)(C)NC(=O)c2ccco2)CC1=O [Example 26, (1R,3S)-3-((((3aR,5aR,5bR,7aR,9S,11aR,11bR,13aS)-3a-(2-(furan-2-carboxamido)-2-methylpropanamido)-1-isopropyl-5a,5b,8,8,11a-pentamethyl-2-oxo-3,3a,4,5,5a,5b,6,7,7a,8,9,10,11,11a,11b,12,13,13a-octadecahydro-2H-cyclopenta[a]chrysen-9-yl)oxy)carbonyl)-2,2-dimethylcyclobutane-1-carboxylic acid] | 55 | 20 | 0 |  |  |  |
| CC(C)C1=C2[C@H]3CC[C@@H]4[C@@]5(C)CC[C@H](OC(=O)[C@H]6C[C@@H](C(=O)O)C6(C)C)C(C)(C)[C@@H]5CC[C@@]4(C)[C@]3(C)CC[C@@]2(NC(=O)C(C)(C)NC(=O)C2(c3ccccc3)CCCC2)CC1=O [Example 27, (1R,3S)-3-((((3aR,5aR,5bR,7aR,9S,11aR,11bR,13aS)-1-isopropyl-5a,5b,8,8,11a-pentamethyl-3a-(2-methyl-2-(1-phenylcyclopentane-1-carboxamido)propanamido)-2-oxo-3,3a,4,5,5a,5b,6,7,7a,8,9,10,11,11a,11b,12,13,13a-octadecahydro-2H-cyclopenta[a]chrysen-9-yl)oxy)carbonyl)-2,2-dimethylcyclobutane-1-carboxylic acid] | 52 | 2 | 0 |  |  |  |
| Cc1cccnc1C(=O)NC(C)(C)C(=O)N[C@@]12CC[C@]3(C)[C@H](CC[C@@H]4[C@@]5(C)CC[C@H](OC(=O)[C@H]6C[C@@H](C(=O)O)C6(C)C)C(C)(C)[C@@H]5CC[C@]43C)C1=C(C(C)C)C(=O)C2 [Example 29, (1R,3S)-3-((((3aR,5aR,5bR,7aR,9S,11aR,11bR,13aS)-1-isopropyl-5a,5b,8,8,11a-pentamethyl-3a-(2-methyl-2-(3-methylpicolinamido)propanamido)-2-oxo-3,3a,4,5,5a,5b,6,7,7a,8,9,10,11,11a,11b,12,13,13a-octadecahydro-2H-cyclopenta[a]chrysen-9-yl)oxy)carbonyl)-2,2-dimethylcyclobutane-1-carboxylic acid] | 29 | 3 | 2 |  |  |  |
| CC(C)C1=C2[C@H]3CC[C@@H]4[C@@]5(C)CC[C@H](OC(=O)[C@H]6C[C@@H](C(=O)O)C6(C)C)C(C)(C)[C@@H]5CC[C@@]4(C)[C@]3(C)CC[C@@]2(NC(=O)C(C)(C)NC(=O)CN2CCS(=O)(=O)CC2)CC1=O [Example 34, (1R,3S)-3-((((3aR,5aR,5bR,7aR,9S,11aR,11bR,13aS)-3a-(2-(2-(1,1-dioxidothiomorpholino)acetamido)-2-methylpropanamido)-1-isopropyl-5a,5b,8,8,11a-pentamethyl-2-oxo-3,3a,4,5,5a,5b,6,7,7a,8,9,10,11,11a,11b,12,13,13a-octadecahydro-2H-cyclopenta[a]chrysen-9-yl)oxy)carbonyl)-2,2-dimethylcyclobutane-1-carboxylic acid] | 26 | 10 | 1 |  |  |  |
| CC(C)C1=C2[C@H]3CC[C@@H]4[C@@]5(C)CC[C@H](OC(=O)[C@H]6C[C@@H](C(=O)O)C6(C)C)C(C)(C)[C@@H]5CC[C@@]4(C)[C@]3(C)CC[C@@]2(NC(=O)C(C)(C)NC(=O)C2CCNCC2)CC1=O [Example 35, (1R,3S)-3-((((3aR,5aR,5bR,7aR,9S,11aR,11bR,13aS)-1-isopropyl-5a,5b,8,8,11a-pentamethyl-3a-(2-methyl-2-(piperidine-4-carboxamido)propanamido)-2-oxo-3,3a,4,5,5a,5b,6,7,7a,8,9,10,11,11a,11b,12,13,13a-octadecahydro-2H-cyclopenta[a]chrysen-9-yl)oxy)carbonyl)-2,2-dimethylcyclobutane-1-carboxylic acid hydrochloride] |  |  |  | 84 | 92 | 77 |
| CC(C)C1=C2[C@H]3CC[C@@H]4[C@@]5(C)CC[C@H](OC(=O)[C@H]6C[C@@H](C(=O)O)C6(C)C)C(C)(C)[C@@H]5CC[C@@]4(C)[C@]3(C)CC[C@@]2(NC(=O)C(C)(C)NC(=O)[C@@H](N)C(C)C)CC1=O [Example 36, (1R,3S)-3-((((3aR,5aR,5bR,7aR,9S,11aR,11bR,13aS)-3a-(2-((S)-2-amino-3-methylbutanamido)-2-methylpropanamido)-1-isopropyl-5a,5b,8,8,11a-pentamethyl-2-oxo-3,3a,4,5,5a,5b,6,7,7a,8,9,10,11,11a,11b,12,13,13a-octadecahydro-2H-cyclopenta[a]chrysen-9-yl)oxy)carbonyl)-2,2-dimethylcyclobutane-1-carboxylic acid hydrochloride] |  |  |  | 56 | 15 | 8 |
